# Test results as given in patent US9303027B2 (dated 2016).
# Counter-ions that a name gives are not always drawn.
row,Compound,melting point [°C]
1,O=C(O)c1ccc(C2(C(=O)N[C@H](CN3CCCC3)c3ccccc3)CC2)cc1,134 to 136
2,O=C(N[C@H](CN1CCCC1)c1cccc(OCc2ccccc2)c1)C1(c2ccc3oc(=O)[nH]c3c2)CC1,94 to 96
3,O=C(N[C@H](CN1CCCC1)c1cccc(O)c1)C1(c2ccc3oc(=O)[nH]c3c2)CC1,132 to 134
4,COC(=O)c1cccc(Cn2c(=O)oc3ccc(C4(C(=O)N[C@H](CN5CCCC5)c5cccc(O)c5)CC4)cc32)c1,112 to 113
5,CS(=O)(=O)Nc1cccc(C2(C(=O)N[C@H](CN3CCCC3)c3ccccc3)CC2)c1,146 to 148
6,CN(C(=O)C1(c2ccccc2)CCCC1)[C@H](CN1CCCC1)c1ccccc1.Cl,220 to 221
7,Cl.O=C(N[C@H](CN1CCCC1)c1ccccc1)C1(c2cccc(OCc3ccccc3)c2)CC1,118 to 120
8,CS(=O)(=O)c1ccc(C2(C(=O)N[C@H](CN3CCCC3)c3ccccc3)CC2)cc1,150 to 152
9,CN(C)S(=O)(=O)c1ccccc1C1(C(=O)N[C@H](CN2CCCC2)c2ccccc2)CC1,80 to 81
10,CC(C)(C)OC(=O)N[C@H]1CCN(C[C@@H](NC(=O)C2(c3cccc(NS(C)(=O)=O)c3)CC2)c2ccccc2)C1,66.3 to 66.5
11,Cl.O=C(N[C@H](CN1CCCC1)c1ccccc1)C1(c2ccccc2)CCCCC1,204 to 205
12,CS(=O)(=O)Nc1cccc(C2(C(=O)N[C@H](CN3CCCC3)C3CCCCC3)CC2)c1,201 to 202
13,Cl.O=C(N[C@H](CN1CCCC1)c1ccccc1)C1(c2cnc3ccccc3c2)CC1,176 to 178
14,O=C(N[C@H](CN1CCCC1)c1ccccc1)C1(c2ccc3c(c2)NS(=O)(=O)C=C3)CC1,148 to 150
15,CS(=O)(=O)Oc1cccc([C@@H](CN2CCCC2)NC(=O)C2(c3ccc4oc(=O)[nH]c4c3)CC2)c1 (as salt: trifluoroacetate),101 to 103
16,CS(=O)(=O)Nc1cccc(C2(C(=O)N[C@H](CN3CC[C@H](N)C3)c3ccccc3)CC2)c1 (as salt: trifluoroacetate),119.6 to 119.8
17,Cn1c(=O)oc2ccc(C3(C(=O)N[C@H](CN4CCCC4)c4ccccc4)CC3)cc21 (stereo in doubt),96 to 98
18,N#Cc1cccc([C@@H](CN2CCCC2)NC(=O)C2(c3ccc4oc(=O)[nH]c4c3)CC2)c1 (stereo in doubt),106 to 108
19,Nc1cccc([C@@H](CN2CCCC2)NC(=O)C2(c3ccc4oc(=O)[nH]c4c3)CC2)c1 (stereo in doubt),95 to 97
20,N#Cc1cccc(COc2cccc([C@@H](CN3CCCC3)NC(=O)C3(c4ccc5oc(=O)[nH]c5c4)CC3)c2)c1 (stereo in doubt),129 to 130
21,N#Cc1ccc(COc2cccc([C@@H](CN3CCCC3)NC(=O)C3(c4ccc5oc(=O)[nH]c5c4)CC3)c2)cc1 (stereo in doubt),88 to 89
22,O=C(N[C@H](CN1CCCC1)c1ccccc1)C1(c2ccc3oc(=O)[nH]c3c2)CC1 (stereo in doubt),142 to 144
23,Cc1noc2ccc(C3(C(=O)N[C@H](CN4CCCC4)c4ccccc4)CC3)cc12 (stereo in doubt),158.5 to 158.8
24,Cc1cc(C2(C(=O)N[C@H](CN3CCCC3)c3ccccc3)CC2)ccc1NS(C)(=O)=O (stereo in doubt),92 to 94
25,O=CNc1cc(C2(C(=O)N[C@H](CN3CCCC3)c3ccccc3)CC2)ccc1O (stereo in doubt),175 to 177
26,CS(=O)(=O)Nc1cc(C2(C(=O)N[C@H](CN3CCCC3)c3ccccc3)CC2)c(F)cc1F (stereo in doubt),81.2 to 81.4
27,CS(=O)(=O)Nc1cc(C2(C(=O)N[C@H](CN3CCCC3)c3ccccc3)CC2)ccc1F.Cl (stereo in doubt),130
28,O=C(O)COc1ccc(C2(C(=O)N[C@H](CN3CCCC3)c3ccccc3)CC2)cc1 (stereo in doubt),94 to 95
